Patent publication US4904590A, “Antibiotic A80915 and process for its production” (Eli Lilly and Company, priority 1988, dated 1990)
Converted amounts (≈) assume the structure as drawn. Like-named read-outs stand apart in the source and are kept apart here.

Tests used:
[1] = test system: Bordetella bronchiseptica; type: cell-based; settings: Veterinary organism Bordetella bronchiseptica; agar-dilution
Experimental: (§1) The A80915 antibiotics inhibit the growth of bacteria which are pathogenic to animal life. […] The MIC's in Table III were determined by conventional agar-dilution assays.

Escherichia coli = type: cell-based; settings: Veterinary organism Escherichia coli; agar-dilution
Experimental: as §1

Gram-negative = type: cell-based; settings: agar-dilution
Experimental: as §1

Mycoplasma gallisepticum = type: cell-based; settings: Mycoplasmoides gallisepticum; Veterinary organism Mycoplasma gallisepticum; agar-dilution
Experimental: as §1

Mycoplasma hyopneumoniae = type: cell-based; settings: Mesomycoplasma hyopneumoniae; Veterinary organism Mycoplasma hyopneumoniae; agar-dilution
Experimental: as §1

Pasteurella hemolytica = type: cell-based; settings: Veterinary organism Pasteurella hemolytica; agar-dilution
Experimental: as §1

Pasteurella multocida = type: cell-based; settings: Veterinary organism Pasteurella multocida; agar-dilution
Experimental: as §1

Salmonella typhimurium = type: cell-based; settings: Salmonella enterica; Veterinary organism Salmonella typhimurium; agar-dilution
Experimental: as §1

[2] = test system: Staphylococcus aureus V41; type: cell-based
Experimental: as §1

[3] = test system: Staphylococcus aureus X1.1; type: cell-based
Experimental: as §1

[4] = test system: Staphylococcus aureus X400; type: cell-based
Experimental: as §1

[5] = test system: Staphylococcus epidermis 222; type: cell-based
Experimental: as §1

[6] = test system: Staphylococcus epidermis EPI1; type: cell-based
Experimental: as §1

Staphylococcus sp. = type: cell-based; settings: Veterinary organism Staphylococcus sp.; agar-dilution
Experimental: as §1

[7] = test system: Streptococcus faecium 2041; type: cell-based; settings: Enterococcus faecium
Experimental: as §1

[8] = test system: Streptococcus faecium X66; type: cell-based; settings: Enterococcus faecium
Experimental: as §1

[9] = test system: Streptococcus pneumoniae Park1; type: cell-based
Experimental: as §1

[10] = test system: Streptococcus pyogenes C203; type: cell-based
Experimental: as §1

Streptococcus sp. = type: cell-based; settings: Veterinary organism Streptococcus sp.; agar-dilution
Experimental: as §1

[11] = test system: Clostridium difficile 2994; test: Susceptibility of anaerobic bacterial isolates (MIC), agar-dilution; type: cell-based
[12] = test system: Clostridium perfringens 81; test: microbe, parasite or virus in culture; type: cell-based; settings: Clostridium perfringens, 81, 24 h
[13] = test system: Clostridium septicum 1128; test: Susceptibility of anaerobic bacterial isolates (MIC), agar-dilution; type: cell-based; settings: 24-hour incubation
Experimental: The A80915 antibiotics also are active against anaerobic bacteria. […] End points were read after 24-hour incubation.

[14] = test system: Eubacterium aerofaciens 1235; test: as above; type: cell-based
[15] = test system: Peptococcus asaccharolyticus 1302; test: as above; type: cell-based; settings: Peptoniphilus asaccharolyticus; Peptococcus asaccharolyticus 1302; agar-dilution, 24-hour incubation; read-out: MIC
Peptococcus prevoti 1281 = test: as above; type: cell-based; settings: 24 h
[16] = test system: Peptostreptococcus anaerobius 1428; test: as above; type: cell-based
[17] = test system: Peptostreptococcus intermedius 1264; test: as above; type: cell-based; settings: Peptostreptococcus, 1264, 24 h
[18] = test system: Propionibacterium acnes 79; test: as above; type: cell-based
Bacteriodes fragilis 111 = test: as above; type: cell-based
[19] = test system: Bacteriodes fragilis 1877; test: as above; type: cell-based
[20] = test system: Bacteriodes fragilis 1936B; test: as above; type: cell-based
[21] = test system: Bacteriodes thetaiotaomicron 1438; test: as above; type: cell-based
[22] = test system: Bacteriodes melaninogenicus 1856/28; test: as above; type: cell-based; settings: Bacteriodes melaninogenicus 1856/28; agar-dilution, 24-hour incubation; read-out: MIC
[23] = test system: Bacteriodes melaninogenicus 2736; test: as above; type: cell-based
[24] = test system: Bacteriodes vulgatis 1211; test: as above; type: cell-based
[25] = test system: Bacteriodes corrodens 1874; test: as above; type: cell-based
[26] = test system: Fusobacterium symbiosum 1470; test: as above; type: cell-based
[27] = test system: Fusobacterium necrophorum 6054A; test: as above; type: cell-based
Trichomonas vaginalis = test: Anti-protozoan activity (MIC); type: cell-based
Trichomonas foetus = test: Anti-protozoan activity (MIC); type: cell-based; settings: Tritrichomonas foetus
Candida albicans = test: Anti-fungal activity (MIC); type: cell-based
[28] = Acute toxicity in mice, intraperitoneal injection; settings: mouse, in vivo, ip
Source text: The acute toxicity of the A80915 antibiotics in mice, when administered by intraperitoneal injection and expressed as LD50, is shown in Table V.

[29] = Staphylococcus aureus V41, agar-dilution, read-out: MIC
[30] = Staphylococcus aureus X1.1, agar-dilution, read-out: MIC
[31] = Staphylococcus aureus X400, agar-dilution, read-out: MIC
[32] = Staphylococcus epidermis 222, agar-dilution, read-out: MIC
[33] = Staphylococcus epidermis EPI1, agar-dilution, read-out: MIC
[34] = Streptococcus faecium 2041, agar-dilution, read-out: MIC
[35] = Streptococcus faecium X66, agar-dilution, read-out: MIC
[36] = Streptococcus pneumoniae Park1, agar-dilution, read-out: MIC
[37] = Streptococcus pyogenes C203, agar-dilution, read-out: MIC

## Cc1c(O)cc2c(c1O)C(=O)[C@@]1(Cl)C[C@@H](Cl)C(C)(C)O[C@@]1(C[C@H]1C(C)(C)[C@@H](Cl)CC[C@]1(C)O)C2=O [A80915C]
[1]
  MIC: > 50 µg/mL
Escherichia coli
  MIC: > 50 µg/mL
Gram-negative
  MIC: > 128 µg/mL
Mycoplasma gallisepticum
  MIC: 25 µg/mL (≈ 45.6 µM)
Mycoplasma hyopneumoniae
  MIC: > 50 µg/mL
Pasteurella hemolytica
  MIC: 50 µg/mL (≈ 91.3 µM)
Pasteurella multocida
  MIC: 50 µg/mL (≈ 91.3 µM)
Salmonella typhimurium
  MIC: > 50 µg/mL
[2]; Staphylococcus aureus, V41
  MIC: > 128 µg/mL
[3]; Staphylococcus aureus, X1.1
  MIC: > 128 µg/mL
[4]; Staphylococcus aureus, X400
  MIC: > 128 µg/mL
[5]; Staphylococcus, 222
  MIC: > 128 µg/mL
[6]; Staphylococcus, EPI1
  MIC: > 128 µg/mL
Staphylococcus sp.
  MIC: 1.56 µg/mL (≈ 2.85 µM)
[7]; 2041
  MIC: > 128 µg/mL
[8]; X66
  MIC: > 128 µg/mL
[9]; Streptococcus pneumoniae, PARK1
  MIC: > 128 µg/mL
[10]; Streptococcus pyogenes, C203
  MIC: > 128 µg/mL
Streptococcus sp.
  MIC: 3.12 µg/mL (≈ 5.69 µM)
[11]; Clostridioides difficile, Clostridium difficile 2994, agar-dilution, 24-hour incubation, read-out: MIC
  MIC: 8 µg/mL (≈ 14.6 µM)
[12]
  MIC: 8 µg/mL (≈ 14.6 µM)
[13]
  MIC: 8 µg/mL (≈ 14.6 µM)
[14]; Collinsella aerofaciens, Eubacterium aerofaciens 1235, agar-dilution, 24-hour incubation, read-out: MIC
  MIC: 8 µg/mL (≈ 14.6 µM)
[15]
  MIC: 2 µg/mL (≈ 3.65 µM)
Peptococcus prevoti 1281
  MIC: 2 µg/mL (≈ 3.65 µM)
[16]; Peptostreptococcus anaerobius, 1428, 24 h
  MIC: 4 µg/mL (≈ 7.3 µM)
[17]
  MIC: 128 µg/mL (≈ 234 µM)
[18]; Cutibacterium acnes, 79, 24 h
  MIC: 4 µg/mL (≈ 7.3 µM)
Bacteriodes fragilis 111; 24 h
  MIC: 128 µg/mL (≈ 234 µM)
[19]; 24 h
  MIC: 4 µg/mL (≈ 7.3 µM)
[20]; 24 h
  MIC: 4 µg/mL (≈ 7.3 µM)
[21]; 24 h
  MIC: > 128 µg/mL
[22]
  MIC: 64 µg/mL (≈ 117 µM)
[23]; 24 h
  MIC: > 128 µg/mL
[24]; 24 h
  MIC: > 128 µg/mL
[25]; 24 h
  MIC: > 128 µg/mL
[26]; Fusobacterium, 1470, 24 h
  MIC: > 128 µg/mL
[27]; Fusobacterium necrophorum, 6054A, 24 h
  MIC: > 128 µg/mL
Trichomonas vaginalis
  MIC: > 100 µg/mL
Trichomonas foetus
  MIC: > 100 µg/mL
Candida albicans
  MIC: > 80 µg/mL
[28]
  LD50: > 300 mg/kg

## C=C1CCC(Cl)C(C)(C)C1CC12OC(C)(C)C(Cl)CC1(Cl)C(=O)c1c(cc(O)c(C)c1O)C2=O (stereo not shown) [A80915A]
[1]
  MIC: > 50 µg/mL
Escherichia coli
  MIC: > 50 µg/mL
Gram-negative
  MIC: > 128 µg/mL
Mycoplasma gallisepticum
  MIC: 0.78 µg/mL (≈ 1.47 µM)
Mycoplasma hyopneumoniae
  MIC: 3.12 µg/mL (≈ 5.89 µM)
Pasteurella hemolytica
  MIC: > 50 µg/mL
Pasteurella multocida
  MIC: 3.12 µg/mL (≈ 5.89 µM)
Salmonella typhimurium
  MIC: > 50 µg/mL
[2]; [29]
  MIC: 2 µg/mL (≈ 3.77 µM)
[3]; [30]
  MIC: 2 µg/mL (≈ 3.77 µM)
[4]; [31]
  MIC: 2 µg/mL (≈ 3.77 µM)
[5]; [32]
  MIC: 2 µg/mL (≈ 3.77 µM)
[6]; [33]
  MIC: 2 µg/mL (≈ 3.77 µM)
Staphylococcus sp.
  MIC: 0.1 µg/mL (≈ 0.189 µM)
[7]; [34]
  MIC: 8 µg/mL (≈ 15.1 µM)
[8]; [35]
  MIC: 2 µg/mL (≈ 3.77 µM)
[9]; [36]
  MIC: 32 µg/mL (≈ 60.4 µM)
[10]; [37]
  MIC: 32 µg/mL (≈ 60.4 µM)
Streptococcus sp.
  MIC: 0.2 µg/mL (≈ 0.377 µM)
[11]; Clostridioides difficile, 2994, 24 h
  MIC: 4 µg/mL (≈ 7.55 µM)
[12]
  MIC: 4 µg/mL (≈ 7.55 µM)
[13]
  MIC: 4 µg/mL (≈ 7.55 µM)
[14]; Collinsella aerofaciens, 1235, 24 h
  MIC: 4 µg/mL (≈ 7.55 µM)
[15]
  MIC: 16 µg/mL (≈ 30.2 µM)
Peptococcus prevoti 1281
  MIC: 4 µg/mL (≈ 7.55 µM)
[16]; Peptostreptococcus anaerobius 1428, agar-dilution, 24-hour incubation, read-out: MIC
  MIC: > 128 µg/mL
[17]
  MIC: 4 µg/mL (≈ 7.55 µM)
[18]; Cutibacterium acnes, Propionibacterium acnes 79, agar-dilution, 24-hour incubation, read-out: MIC
  MIC: 32 µg/mL (≈ 60.4 µM)
Bacteriodes fragilis 111; Bacteriodes fragilis 111, agar-dilution, 24-hour incubation, read-out: MIC
  MIC: > 128 µg/mL
[19]; Bacteriodes fragilis 1877, agar-dilution, 24-hour incubation, read-out: MIC
  MIC: > 128 µg/mL
[20]; Bacteriodes fragilis 1936B, agar-dilution, 24-hour incubation, read-out: MIC
  MIC: > 128 µg/mL
[21]; Bacteriodes thetaiotaomicron 1438, agar-dilution, 24-hour incubation, read-out: MIC
  MIC: > 128 µg/mL
[22]
  MIC: 2 µg/mL (≈ 3.77 µM)
[23]; Bacteriodes melaninogenicus 2736, agar-dilution, 24-hour incubation, read-out: MIC
  MIC: > 128 µg/mL
[24]; Bacteriodes vulgatis 1211, agar-dilution, 24-hour incubation, read-out: MIC
  MIC: > 128 µg/mL
[25]; Bacteriodes corrodens 1874, agar-dilution, 24-hour incubation, read-out: MIC
  MIC: > 128 µg/mL
[26]; Fusobacterium symbiosum 1470, agar-dilution, 24-hour incubation, read-out: MIC
  MIC: > 128 µg/mL
[27]; Fusobacterium necrophorum 6054A, agar-dilution, 24-hour incubation, read-out: MIC
  MIC: > 128 µg/mL
Trichomonas vaginalis
  MIC: 12.5 µg/mL (≈ 23.6 µM)
Trichomonas foetus
  MIC: 50 µg/mL (≈ 94.4 µM)
Candida albicans
  MIC: > 40 µg/mL
[28]
  LD50: 212 mg/kg

## C=C1CCC(Cl)C(C)(C)C1CC12OC(C)(C)C(Cl)C=C1C(=O)c1c(cc(O)c(C)c1O)C2=O (stereo not shown) [Compound 5]
Gram-negative
  MIC: > 128 µg/mL
[2]; [29]
  MIC: 4 µg/mL (≈ 8.11 µM)
[3]; [30]
  MIC: 4 µg/mL (≈ 8.11 µM)
[4]; [31]
  MIC: 4 µg/mL (≈ 8.11 µM)
[5]; [32]
  MIC: 4 µg/mL (≈ 8.11 µM)
[6]; [33]
  MIC: 4 µg/mL (≈ 8.11 µM)
[7]; [34]
  MIC: 8 µg/mL (≈ 16.2 µM)
[8]; [35]
  MIC: 8 µg/mL (≈ 16.2 µM)
[9]; [36]
  MIC: 4 µg/mL (≈ 8.11 µM)
[10]; [37]
  MIC: 4 µg/mL (≈ 8.11 µM)
